Reference: patent publication US10064865B2, “Composition comprising phosphodiesterase type 5 inhibitor for inhibiting apoptosis of nerve cells” (ARIBIO INC., priority 2012, dated 2018)
Marks after values point to notes of the source that are not given here.

How the values were obtained:
[1] = system: neuron apoptosis-operated rats; assay: Example 2 forelimb placing test; type: in vivo, Sprague-Dawley (SD) rats
Experimental: Sensorimotor function was evaluated by use of limb placing (de Ryck M et al., Stroke. 20:1383-90(1989)) and body swing (Borlongan and Sanberg, J Neurosci. 15:5372-8(1995)) tests. These tests were performed at 1 and 28 days after neuron apoptosis. The investigator performing the surgery and behavioral assessments was blinded to treatment assignment.
Limb placing test: Forelimb and hindlimb placement were assessed independently. For the forelimb placing test, the rats were held by their torso with their forepaws hanging free and moved slowly toward the edge of a tabletop, stopping short of touching the vibrissae (for vision-induced placing), touching the vibrissae (for vibrissae-induced placing), making light contact with the front of the forepaw to the edge of the tabletop (for tactile-induced placing), and pressing the forepaws to the edge of the table with increased pressure (for proprioceptive-induced placing). Hindlimb placing was conducted in the same manner as above but with tactile and proprioceptive stimulation applied to the front/top of each hindlimb. Each limb for placing in response to visual, vibrissae, tactile, and proprioceptive stimulation are scored in the following manner: normal performance=0 points; performance with unilateral limb=1 point; performance with a delay (2 seconds) and/or incomplete=2 point; no performance=3 points. A total of 12 points in forelimb placing test and 6 points in hindlimb placing test means maximal neurological deficit, and 0 points means normal performance.
All data were expressed as mean±standard deviation (S.D.) of ten rats. Multiple comparison tests for different dose groups were conducted. Variance homogeneity was examined using the Levene test (Levene A, Clin Otalary, 1981; 6:145-51). […] In addition, the percent changes as compared with neuron apoptosis control and mirodenafil treated rats were calculated to help the understanding of the efficacy of test substances as follow Equation 6 and 7. […]

caspase-3 = assay: Example 2 immunohistochemistry: caspase-3-immunoreactive cells; type: in vivo, Sprague-Dawley (SD) rats; conditions: for Numbers of neurons: Caspase-3+: 1 mg/kg s.c. once a day for 14 days, 29 days after neuron apoptosis
Experimental: The induction of neuron apoptosis was carried out by damaging the right hemisphere of the brain of animals. Specifically, animals were anesthetized with 2 or 3% isoflurane in the mixture of 70% N2O and 28.5% O2, and were maintained with 1 to 1.5% isoflurane in the mixture of 70% N2O and 28.5% O2. After that the temporalis muscle was bisected and reflected through an incision made midway between the eye and the eardrum canal. The proximal MCA was exposed through a subtemporal craniectomy by microdental drills without removing the zygomatic arch and without transecting the facial nerve. […] Mortality was less than 5%. For sham control, all procedures were performed in the same way, with the exception of the occlusion of the MCA.
After deparaffinized of prepared […] histological paraffin sections, citrate buffer antigen (epitope) retrieval pretreatment were conducted as previously (Shi S R et al., J Histochem Cytochem. 41:1599-604(1993)). Briefly, pre-heat water bath with staining dish containing 10 mM citrate buffers (pH 6.0) until temperature reaches 95-100° C. Immerse slides in the staining dish and place the lid loosely on the staining dish. Incubate for 20 minutes and turn off the water bath. Place the staining dish at room temperature and allow the slides to cool for 20 minutes. After epitope retrievals, sections were immunostained using avidin-biotin complex (ABC) methods for caspase-3 and PARP. Endogenous peroxidase activity was blocked by incubated in methanol and 0.3% H2O2 for 30 minutes, and non-specific binding of immunoglobulin was blocked with normal horse serum blocking solution (Vector Lab., Burlingame, Calif., USA. Dilution 1:100) for 1 hr in humidity chamber. Primary antiserum were treated for overnight at 4° C. in humidity chamber, and then incubated with biotinylated universal secondary antibody (Vector Lab., Dilution 1:50) and ABC reagents (Vectastain Elite ABC Kit, Vector Lab., Dilution 1:50) for 1 hr at room temperature in humidity chamber. Finally, reacted with peroxidae substrate kit (Vector Lab.) for 3 min at room temperature. All sections were rinse in 0.01M PBS for 3 times, between steps. The neurons occupied by over 10% of immunoreactivities, the density, of each antiserum for caspase-3 and PARP were regarded as positive, and the mean numbers of caspase-3 and PARPimmunoreactive cells dispersed in the mm^2 of ipsilateral peri-infarct/defect cerebral cortex were counted using an automated image analysis process as establish methods (Lee et al., 2010; Song et al., 2012), respectively. The histopathologist was blinded to the group distribution when performing the analysis.
All data were expressed as mean±standard deviation (S.D.) of ten rats. Multiple comparison tests for different dose groups were conducted. Variance homogeneity was examined using the Levene test (Levene A, Clin Otalary, 1981; 6:145-51). […] Statistical analyses were conducted using SPSS for Windows (Release 14K, SPSS Inc., USA; Ludbrook, Clin Exp Pharmacol Physiol, 1997; 24:294-6). In addition, the percent changes as compared with neuron apoptosis control and mirodenafil treated rats were calculated to help the understanding of the efficacy of test substances as follow Equation 6 and 7. Percentage Changes as Compared with Sham Control (%)=[((Data of neuron apoptosis control−Data of sham control rat)/Data of sham control rats)×100] [EQUATION 6] Percentage Changes as Compared with neuron apoptosis Control (%)=[((Data of test material treated rats−Data of neuron apoptosis control rats)/Data of neuron apoptosis control rats)×100] [EQUATION 7]

[2] = 1 mg/kg from 24 hrs after surgery
[3] = 1 mg/kg from 72 hrs after surgery
[4] = 1 mg/kg from 168 hrs after surgery

CCCOc1ccc(S(=O)(=O)N2CCN(CCO)CC2)cc1-c1nc2c(CCC)cn(CC)c2c(=O)[nH]1 [Mirodenafil, mirodenafil]
forelimb placing test scores at 28 days, change as compared with neuron apoptosis control [1, 2]: −57.41%
forelimb placing test scores at 28 days, change as compared with neuron apoptosis control [1, 3]: −29.63%
forelimb placing test scores at 28 days, change as compared with neuron apoptosis control [1, 4]: −11.11%
numbers of caspase-3-immunoreactive neurons at 29 days, change as compared with neuron apoptosis control (caspase-3; [2]): −57.29%
numbers of caspase-3-immunoreactive neurons at 29 days, change as compared with neuron apoptosis control (caspase-3; [3]): −40.63%
numbers of caspase-3-immunoreactive neurons at 29 days, change as compared with neuron apoptosis control (caspase-3; [4]): −15.57%
Numbers of neurons: Caspase-3+ (caspase-3; start 24 hrs after operation): 30.01 ± 4.90^ab cells/mm^2 of cerebral cortex
Numbers of neurons: Caspase-3+ (caspase-3; start 72 hrs after operation): 41.71 ± 6.34^ab cells/mm^2 of cerebral cortex
Numbers of neurons: Caspase-3+ (caspase-3; start 168 hrs after operation): 59.33 ± 5.13^a cells/mm^2 of cerebral cortex
